Laboratory results published in PMC6143625, “A high throughput screen for next-generation leads targeting malaria parasite transmission” (Nature Communications, 2018).
Like-named read-outs stand apart in the source and are kept apart here.

Key:
[1] = system: P. falciparum male gamete formation; experiment: Pf DGFA add-in format, male readout; format: cell-based, Plasmodium falciparum; settings: for IC50: Plasmodium falciparum, 0h preincubation/add-in
Description: (§1) In profiling mode, the Pf DGFA was performed in 96-well plates[23] in wash-out and add-in formats to aid manual manipulation steps. In the wash-out format, gametocytes were incubated for 24 h with test compounds in round-bottomed 96 well plates and then culture medium replaced three times over 6 h, to remove as much of the compound as possible from the well. […] In add-in format, gametocytes were added directly to flat-bottomed 96-well plates containing test compounds, ookinete medium and anti-Pfs25.

[2] = system: HepG2 cells; experiment: HepG2 toxicity (CellTiter-Glo, parallel to liver stage assay); format: cell-based, human; settings: human, 48 h
Description: (§2) Compound inhibition of P. berghei sporozoite liver infection was assessed in a high-throughput luciferase assay. 1536-well plates (789173-F, Greiner Bio-One) were pre-seeded with 5 µl HepG2-A16-CD81^EGFP cells grown in DMEM (11965–092, Invitrogen) containing 10% FBS (35–011-CV, Corning) and 1× Pen Strep Glutamine (10378–016, Invitrogen). Then, 50 nl of compound in DMSO was dispensed in 12-point serial dilution dose-response format (50 µM to 2.82 × 10^−4 µM), and incubated overnight.A. stephensi mosquitoes infected with P. berghei-ANKA-GFP-Luc-SMCON (Pb-Luc)[41] sporozoites bearing the antifolate-resistance-conferring Toxoplasma gondii dihydrofolate reductase-thymidylate synthase selectable marker, pyR2. After dissection, ~1000 sporozoites in 5 µl screening media (DMEM, 11965–092, Invitrogen; 5% FBS, 35–011-CV, Corning; 5x Pen Strep Glutamine, 10378–016, Invitrogen) were added per well and incubated for 48 h (37 °C, 5% CO2). Bioluminescence was measured using an EnVision microplate reader (Perkin Elmer), following the addition of 2 µl per well of Bright-Glo™ (Promega). Compound toxicity against HepG2 cells was determined in parallel by measuring cellular ATP levels reported by luciferase activity. Methods were similar to the P. berghei liver stage assay, except for the addition of CellTiter-Glo® (Promega) as a detection reagent. DMSO (0.5%) was used as a negative control in both assays, with Atovaquone (5 µM) and Puromycin (10 µM) acting as positive controls in the P. berghei and toxicity assays, respectively.

[3] = system: P. falciparum stage V male gametocytes (male gamete formation); experiment: P. falciparum dual gamete formation assay (Pf DGFA), male readout (exflagellation), 48 h carry-over format; format: cell-based, Plasmodium falciparum NF54; settings: Plasmodium falciparum, 24h preincubation/carry-over
[4] = system: P. falciparum stage V male gametocytes (male gamete formation); experiment: as above; format: cell-based, Plasmodium falciparum NF54; settings: for IC50 / inhibition at 2 µM: Plasmodium falciparum; for inhibition at 2 µM: primary screen, single replicate
[5] = system: P. berghei-ANKA-GFP-Luc-SMCON sporozoites in HepG2-A16-CD81EGFP cells; experiment: P. berghei liver stage assay (luciferase sporozoite HepG2 invasion); format: cell-based; settings: Plasmodium berghei, 48h incubation, read-out: Pb Liver invasion assay IC50
Description: as §2

[6] = system: HepG2 human cells; set-up: method as in http://dx.doi.org/10.6019/CHEMBL3507680; settings: ref http://dx.doi.org/10.6019/CHEMBL3507680; cited from earlier work
[7] = system: P. falciparum female gamete formation; experiment: Pf DGFA add-in format, female readout; format: cell-based; settings: Plasmodium falciparum; 0h preincubation/add-in
Description: as §1

[8] = 48 h, dose response retest of primary hits, 48 h incubation, read-out: Male IC50
[9] = 48h preincubation/carry-over, read-out: Pf DGFA Male IC50

Row | Structure (SMILES) | IC50 [1] [µM] | Human HepG2 assay TOX50 [2] [µM] | IC50 [3] [µM] | IC50 [4, 8] [µM] | IC50 [4, 9] [µM] | inhibition at 2 µM ([4]; 48 h incubation) [%] | IC50 [5] [µM] | %Inh HepG2 @10uM [6] [%] | IC50 [7] [µM] | activity in the add-in format ([1]; profiling) | IC50 ([4]; resynthesized, incubated at room temperature, read-out: IC50 in Pf DGFA after aging) [µM] | IC50 ([4]; resynthesized, prolonged incubation at 37 °C, read-out: IC50 in Pf DGFA after aging) [µM] | activity in the Pf DGFA ([4]; freshly resynthesized compound)
1 | CCOc1ccc2ccccc2c1CNCC1CCNCC1.Cl.Cl [DDD01255740] | > 10 | >50.0 | 4.1 | 4.4 | 0.41 | 35.6 | 13.2 | 9.2 | > 10 |  |  |  | 
2 | Cc1ccc(-c2cc(C(=O)NCCC3=CCCCC3)[nH]n2)o1 [DDD01255968] | 0.32 | >50.0 | 1.17 | 1.55 | 1.82 | 37.5 | 17.6 | -10.6 | > 10 | active | 15.9 | 5.85 | inactive
3 | CCn1ncc(Br)c1CN(C)S(=O)(=O)c1ccc(C)cc1 [DDD01259521] | > 10 | >50.0 | > 12.5 |  | > 12.5 |  | 8.64 | 8.37 | > 10 |  |  |  | 
4 | c1cnnc(N2CCCC2CNc2ncnc3sccc23)c1 (stereo not drawn) [DDD01299704] | > 10 | >50.0 | > 12.5 |  | > 12.5 |  | 16.4 | -7.82 | > 10 |  |  |  | 
